In patent publication US9512407B2, “Cells and methods for obtaining them” (GENOME RESEARCH LIMITED, priority 2009, dated 2016):
“Also recorded” adds a separate entry of the source.

Tests used:
Oct4-IRES-Puro-Egfp MEFs = assay: Reprogramming of Oct4 reporter MEFs to iPSCs by PB transposition of Yamanaka factors (colony number); format: cell-based, mouse
Excerpt: To investigate the role of RA signalling in reprogramming, we cloned cDNAs of Oct4, Sox2, Klf4, cMyc, Rara and Rarg into a PB-MSCV vector where expression of the cDNAs was controlled by the MSCV LTR (FIG. 6A). Although exogenous c-Myc is not essential for reprogramming, omission of it reduces reprogramming efficiency and delays the process (23, 30). The individual PB-MSCV-cDNA vectors were co-transfected with a PB transposase plasmid into MEFs (FIG. 1A). PB transposition facilitates efficient integration of the PB transposon into the genome, thus ensuring stable expression of the cDNAs (31).
(§1) ES cell pluripotency requires proper levels of Oct4 (Pou5f1) expression (32), and activation of Oct4 is known to be a crucial event in reprogramming (3). To monitor activation of the endogenous Oct4 locus in reprogramming and to allow unbiased assessment of iPSC quality, we made an Oct4 reporter mouse line where the IRES-Puro-GFP cassette was targeted to the 3′UTR of the Oct4 locus (FIG. 6B). The targeted ES cells were resistant to 2.0 μg/ml Puromycin (Puro) selection. These ES cells were not visibly green under fluorescent microscope but could be distinguished by flow cytometry (FIG. 6C). […] MEFs from the Oct4 reporter mice were thus used in all the MEF reprogramming experiments, and consequently, reprogramming and iPSC quality could be conveniently monitored and assessed by either Puro resistance or GFP expression in iPSCs.
MEFs were prepared from 12.5 d.p.c. Oct4-IRES-Puro-Egfp embryos. To reduce embryo-to-embryo difference, MEFs from several embryos with the same genotype were mixed together for expansion in M10 media. MEFs were passaged once before they were counted, aliquoted and frozen down. Before electroporation, 1×10^6 MEFs were plated onto one gelatinized 15-cm tissue culture plate. When MEFs were 70-80% confluent, they were typsinized and collected for electroporation. M10: knockout DMEM, 10% foetal bovine serum (FBS, Hyclone), 1×GPS, 1× non-essential amino acids (NEAA, Invitrogen).
MEFs transfection was performed using an Amaxa machine (Lonza) according to the manufacturer's protocol (program A-023). After electroporation, MEFs were seeded in M15 plus LIF on STO feeders. For Tet-On experiments, M15 containing Doxycycline (1.0 μg/ml) was added 24 hours after transfection and was changed every other day. iPSC colonies were usually picked at day 7 to day 10 to 96 well plates and cells were expanded according to standard mouse ES cell culture conditions.
Mouse and human iPSC colonies were visualized by alkaline phosphatase staining using the Leukocyte Alkaline Phosphatase kit (Sigma).
FIG. 1. RA signalling in reprogramming. A. Schematic of the reprogramming strategy by piggyBac (PB) transposition. Oct4 reporter MEFs were transfected with the PB-MSCV-cDNA transposon and transposase plasmids, and were plated directly onto STO feeders. ES-like colonies usually appeared in three weeks. M10 and M15 are media for MEFs and ES cells, respectively. B-C. Expressing Rara or Rarg, together with the four Yamanaka factors, drastically promoted reprogramming while inhibiting RA signalling by expressing Rara-DN blocked reprogramming. iPSC colonies were visualized by alkaline phosphatase staining. The reprogramming control was PB-PGK-Neo plus Yamanaka factors. **: P<0.005; ***: P<0.0005. FL: full-length cDNA; DN: dominant-negative form. D. Temporal requirement of RA signalling in reprogramming. Agonist of Rarg (CD437) was added at various stages of reprogramming. […]

Oct4 locus = assay: iPSC quality by Puro resistance and GFP expression from the Oct4 locus (flow cytometry); format: cell-based, mouse; settings: for quality of iPS cells, measured by FACS: agonist with four Yamanaka factors, up to 8 days
Experimental: as §1
Expression of the endogenous Oct4 is unstable in iPSCs reprogrammed by the four Yamanaka factors (11). […] Further analysis confirmed their partially reprogrammed status: low levels of endogenous pluripotency gene expression (FIG. 1E), and retention of substantial DNA methylation in the differentially methylated regions (DMRs) in the Nanog and Rex1 promoters (FIG. 1F). On the other hand, a small number of colonies were obtained which were resistant to 2.0 μg/ml Puro, and were similar to ES cells regarding pluripotency gene expression, demethylation at the Nanog and Rex1 promoters, and GFP expression (FIG. 1E-F and FIG. 6E). […] In subsequent experiments, we used resistance to 2.0 μg/ml Puro or GFP expression as surrogate criteria for pluripotency quality of mouse primary iPSCs reprogrammed from Oct4-Puro-GFP MEFs.
Mouse iPSCs growing in 96 well feeder plates were trypsinized and resuspended in M15. iPSCs were spun down at 1,000 rpm for 3 minutes, and the medium was removed by putting the plate upside down on tissue. iPSCs were resuspended in PBS and analyzed by Cytomics FC-500 (Beckman Coulter).
We cloned the four Yamanaka factors into the PB transposons separately where expression of each cDNA was controlled by the LTR of MSCV (PB-MSCV-cDNAs, FIG. 6c). These four transposons and the PB transposase (PBase) plasmid were subsequently transfected into Oct4-IRES-Puro-Egfp MEFs. iPS cell colonies resembling those of regular ES cells appeared in three weeks. Most iPS colonies survived 1.0 or 1.5 μg/ml Puro but very few were able to grow in 2.0 μg/ml Puro. […] RT-PCR and DMR sequencing confirmed that these iPS clones growing in 2.0 μg/mL Puro were more similar to regular ES cells than those clones selected by 1.0 or 1.5 μg/mL Puro in terms of pluripotent gene expression and DNA methylation at promoters of these genes (data not shown). […] We thus used 2.0 μg/mL or higher concentration of Puro in combination of flow cytometry to quantitatively evaluate iPS cell quality in the subsequent experiments.

[1] = tested on: Rex1-Puro-IRES-Egfp knock-in mouse ES cell line; assay: RA induced ES cell differentiation, Puro selection; format: cell-based; settings: all-trans retinoic acid; antagonist added or cDNA over-expressed
Excerpt: Insertion of this transposon into the mouse genome can either up-regulate genes near the insertion sites or disrupt them, depending on the structure of the insertion allele. To efficiently eliminate differentiated ES cells in the culture, we targeted the Puro-IRES-Egfp cassette to the Rex1 locus (FIG. 12b). Consequently, undifferentiated ES cells would be resistant to Puromycin (Puro) selection and GFP^+ in flow cytometry, while differentiated cells would be killed by Puro selection and become GFP^− due to rapid lose of Rex1 expression upon differentiation.
A library of mutant ES cells were differentiated with 1.0 μM all-trans retinoic acid (RA) for 4 days and subsequently selected with Puromycin (FIG. 12c). Several Pura^r ES cell clones were identified from independent mutant ES cell pools. Splinkrette PCR analysis identified PB integration sites in genes encoding Rarg, Pparg and Gclc. For Pparg, PB insertion caused over-expression of the entire protein coding sequences. In contrast, Rarg locus had four independent PB insertions, all found in intron 9 (the last intron) (FIG. 12d). These PB insertions caused truncation of Rarg which misses amino acids encoded by exon 10. […] This truncated Rarg likely functioned as a dominant negative form of wild type Rarg (Rarg-DN).
FIG. 12. […]

[2] = tested on: Dox-independent human iPSCs; assay: Signalling dependency of human iPSCs (growth, qRT-PCR); format: cell-based; settings: KSR-2i-LIF media
Experimental: In contrast to dependence on Lif/Jak/Stat pathway for pluripotency maintenance in mouse ES cells, conventional human ES cells derived from embryos are cultured in media containing FGF2 (basic FGF), and LIF alone is insufficient to maintain pluripotency (44, 45). […] Conventional human ES cells are resistant to JAK inhibitor (JAKi) but are differentiated in the presence of BMP4. […] Finally, compared to human ES cells, our human iPSCs expressed lower levels of lineage specific genes such as PAX6, GATA6, and SOX17 in KSR-2i-LIF media (FIG. 5H).
Human iPSCs reprogrammed by PB-CAG vectors were cultured in M15 media, with […] human recombinant LIF. Human iPSCs reprogrammed by PB-TRE vectors were maintained in DMEM/F12 with 1×GPS (Invitrogen), 20% Knockout Serum Replacement (Invitrogen), 1×NEAA, 0.1 mM β-mercaptoethanol (β-ME, Sigma) and two inhibitors, CHIR99021 (5 μM) and PD0325901 (1 μM).
RNA was isolated using the RNeasy Mini Kit (Qiagen). The samples were subsequently quantified and treated with gDNA WipeOut. First-strand cDNA was prepared using the QuantiTect Reverse Transcription Kit (Qiagen). For each RT-PCR reaction, we used 50-100 ng of cDNA and primers listed in Supplementary Table 5. Standard PCR conditions were: 94° C. for 30 s, 60° C. for 30 s, 68° C. for 30 s; X 30 cycles. For real-time PCR, we used Taqman Gene Expression Assays. Taqman probes were either purchased from Applied Biosciences (Supplementary Table 6). All quantitative PCR was performed in a […] Fast Real-Time PCR System (Applied Biosciences). Mouse gene expression was determined relative to mouse Gadph using the ΔCt method. Human gene expression was determined relative to human GADPH gene using the ΔCt method.
FIG. 5. Production and characterization of Dox-independent unique human iPSCs. A. Conservation of RAREoct sequence in several mammalian species. B. Reprogramming HDFn cells using the Tet-On six-factor platform. PB-TRE-cDNA transposon, PB-CAG-rtTA and transposase plasmids were transfected into HDFs which were plated onto STO feeders. Dox (2.0 μg/ml) was added 24 hours post transfection. Dox induction usually lasted for 15-20 days. Colonies were picked for expansion at up to 30 days after transfection. Alternatively, immediately once Dox was removed, colonies were trypsinized and re-plated to a new feeder plate for secondary colony formation. C. Typical human iPSC colony morphology and AP staining. Scale bars: 10.0 μm. D. qRT-PCR analysis of pluripotency genes in parental HDFn, human iPSCs and H1 hESC cells. HiPS15-5 and -10 were two Dox-independent iPSC lines generated from one transfection. […] H. Signalling dependency of human iPSCs measured by gene expression (qRT-PCR). […] Quantitative analysis of gene expression was performed relative to GADPH. […]

Compound: CC1(C)CCC(C)(C)c2cc(C(=O)Nc3ccc(C(=O)O)cc3)ccc21 [Am580]
- reprogramming efficiency (Oct4-IRES-Puro-Egfp MEFs; administrated for 8 days, with four Yamanaka factors): improved reprogramming efficiency
- quality of iPS cells, measured by FACS (Oct4 locus): little effect

Compound: O=C(O)c1ccc2cc(-c3ccc(O)c(C45CC6CC(CC(C6)C4)C5)c3)ccc2c1 [CD437]
- iPS cell colony number (Oct4-IRES-Puro-Egfp MEFs; 100 nM for up to eight day, with four Yamanaka factors): greatly increased
- reprogramming of MEFs to iPSCs (Oct4-IRES-Puro-Egfp MEFs; added to culture media at recommended concentration for 4 or 8 days, with four Yamanaka factors): drastically increased
- iPS colony number (Oct4-IRES-Puro-Egfp MEFs; treatment beyond 8 days (day 1-12)): substantially reduced
- reprogramming efficiency (Oct4-IRES-Puro-Egfp MEFs; treatment beyond 8 days after transfection): reduced reprogramming efficiency
- GFP expression from the Oct4 locus in colonies (iPSC quality) (Oct4 locus; CD437 day 1-4): expressed GFP; also recorded: Improvement of iPSC quality
- survival of Puro selection (Oct4 locus; CD437 day 1-4, 2.0 μg/ml Puro): survived 2.0 μg/ml Puro selection
- quality of iPS cells, measured by FACS (Oct4 locus): significantly improved

Compound: COCCOCOc1cc2ccc(-c3ccc(C(=O)O)cc3)cc2cc1C12CC3CC(CC(C3)C1)C2 [CD2665]
- quality of partially reprogrammed clones (Oct4 locus; 10 μM, two independent partially reprogrammed clones): significantly improved
- effect on quality of partially reprogrammed clones (Oct4 locus; 10 μM, used together with 5-Aza): more obvious
- GFP status of partially reprogrammed clones (Oct4 locus; after treatment for 4 days, with or without 5-Aza): largely GFP negative
- ES cell differentiation induced by RA [1]: block ES cell differentiation

Compound: CC(C)(C)c1nc2c3cc[nH]c(=O)c3c3cc(F)ccc3c2[nH]1 [JAK inhibitor]
- growth and pluripotency gene expression of human iPSCs in the presence of the agent [2]: lost expression of OCT4 and NANOG and were rapidly differentiated

Compound: CCCCCCCOc1cc2c(cc1/C(C)=C/c1ccc(C(=O)O)cc1)C(C)(C)CCS2(=O)=O [Ro-41-5253]
- ES cell differentiation induced by RA [1]: block ES cell differentiation

Compound: Cc1c[nH]c(/C=C2\C(=O)Nc3ccccc32)c1CCC(=O)O [SU54021]
- growth and pluripotency gene expression of human iPSCs in the presence of the agent [2]: grew well and kept pluripotency gene expression
- growth and pluripotency gene expression of human iPSCs in the presence of the agent ([2]; listed as FGFRi): Robust expression of pluripotency genes

Compound: BMP4: BMP4 added to human iPSC culture
- growth and pluripotency gene expression of human iPSCs in the presence of the agent [2]: proliferated well
